Values quoted from earlier work, collected in patent US5830503A (Andrx Pharmaceuticals, Inc., priority 1996, dated 1998).

Settings: as compared to intravenous administration; first pass effect

COc1ccc([C@@H]2Sc3ccccc3N(CCN(C)C)C(=O)[C@@H]2OC(C)=O)cc1 [diltiazem]
absolute bioavailability: about 40%
